Laboratory results published in patent US20210353611A1, “METHODS OF TREATING AMYOTROPHIC LATERAL SCLEROSIS” (Yeda Research and Development Co. Ltd., priority 2018, published 2021).
Structures can show the parent of a compound that is named as a salt.

Legend:
SOD1-Tg mice [1] = experiment: Motor function tests (rotarod, hanging-wire grip test, neurological scoring) in ALS mouse model; format: in vivo; details: subcutaneously implanted mini osmotic pumps, continuous administration; vs vehicle-treated SOD1-Tg mice
Source text: G93A mSOD1-Tg mice on a C57BL/6 background were used. In all experiments, age- and gender-matched mice were used and WT littermates as controls. Mice were 40 days of age at the beginning of experiments. All mice were kept at a strict 24 hr reverse light-dark cycle, with lights being turned on from 10 pm to 10 am. Tryptophan-deficient diet (A10033Yi, Research diets, NJ, USA) was applied from the age of 40 days until the experimental end-point. For antibiotic treatment, mice were given a combination of vancomycin (0.5 g/l), ampicillin (1 g/l), kanamycin (1 g/l), and metronidazole (1 g/l) in their drinking water from the age of 40 days as previously described (Levy et al., 2015). […]
Vehicle control pumps contained equivalent volume of Ultra-pure water. […] The cut was then closed with sterile surgical clips and the animals were carefully monitored for any signs of stress, bleeding, pain, or abnormal behavior. […]
Rotarod: To assess motor coordination and balance, each mouse was tested with a rotarod device (Panlab Le8500 Harvard Apparatus, Spain), in acceleration speed mode (increasing from 4 rpm to 40 rpm during 10 min), with a maximum test time of 5 min. […] Each mouse was recorded three times at the ages of 60, 80, 100, 120 and 140 days. The apparatus automatically recorded the elapsed time when the mouse fell from the spindle. […]

SOD1-Tg mice [2] = experiment: Survival of SOD1-Tg mice; format: in vivo, mouse; details: NAM s.c. osmotic pumps vs vehicle; p=0.1757, Log-rank test
Description: From the age of 130 days, mice were monitored daily. The endpoint was defined by reaching neurological score of 4 and/or more than 15% reduction in body weight. The probability of survival was calculated using the Kaplan-Meier method, and statistical analysis was performed using a log-rank test.

[3] = NAM levels in CSF and sera of mice (targeted metabolomics); details: NAM 49.28 mg/kg/week s.c. osmotic pumps; SOD1-Tg mice vs water-treated controls
Description: Mice were anesthetized by i.p. injection of ketamine (100 mg/kg) and xylazine (10 mg/kg). The skin of the neck was shaved, and the mouse was placed prone on the stereotaxic instrument. The head was secured with the head adaptors. […] Under the dissection microscope, the subcutaneous tissue and muscles (m. biventer cervicis and m. rectus capitis dorsalis major) were separated by blunt dissection with forceps. A pair of micro-retractors is used to hold the muscles apart. The dura mater was blotted dry with sterile cotton swab. CSF was collected using a capillary tube to penetrate into the cisterna magna through the dura mater, lateral to the arteria dorsalis spinalis, immediately frozen in liquid nitrogen and stored at −80° C.
The samples (in 50% Methanol) were dried in a speed vac to blow off the methanol before drying to completion in a lyophilizer. All samples were re-dissolved in 100 μl of 0.1% formic acid.
Liquid Chromatography: Liquid chromatography was performed on a Waters Acquity UPLC system. […] Mobile phase consisted of (A) water and (B) acetonitrile each containing 0.1% formic acid. […]
Mass Spectrometry: LC-MS/MS analysis was performed on a Waters Xevo triple quadrupole equipped with a Zspray ESI source. […] TargetLynx (Waters) was used for Qualitative and Quantitative analysis.

Structure (SMILES): NC(=O)c1cccnc1 [NAM, Nicotinamide]
- ALS symptoms / behavioral and neurological motor tests (SOD1-Tg mice [1]): performed significantly better
- Survival (SOD1-Tg mice [2]): non-significantly trend to improve survival
- NAM levels in sera [3]: significantly increased

Structure (SMILES): O=S(=O)(O)Oc1ccccc1 [Phenol sulfate]
- ALS symptoms / behavioral and neurological motor tests (SOD1-Tg mice [1]): did not affect ALS symptoms
